Assay results published in ChEMBL document CHEMBL3217497, “Design, synthesis and antiproliferative activity of indole analogues of indanocine” (2013).

Key:
Type in all cases: functional
MOLT-4 = experiment: Cytotoxicity against human MOLT4 cells assessed as growth inhibition
NCI-H460 = experiment: Cytotoxicity against human NCI-H460 cells assessed as growth inhibition
NCI-H322M = experiment: Cytotoxicity against human NCI-H322M cells assessed as growth inhibition
SW-620 = experiment: Cytotoxicity against human SW620 cells assessed as growth inhibition
NCI-H522 = experiment: Cytotoxicity against human NCI-H522 cells assessed as growth inhibition
DU-145 = experiment: Cytotoxicity against human DU145 cells assessed as growth inhibition
SF-295 = experiment: Cytotoxicity against human SF295 cells assessed as growth inhibition
A549 = experiment: Cytotoxicity against human A549 cells assessed as growth inhibition
HCT-116 = experiment: Cytotoxicity against human HCT116 cells assessed as growth inhibition
SN12C = experiment: Cytotoxicity against human SN12C cells assessed as growth inhibition
RPMI-8226 = experiment: Cytotoxicity against human RPMI8226 cells assessed as growth inhibition
KM12 = experiment: Cytotoxicity against human KM12 cells assessed as growth inhibition
COLO 205 = experiment: Cytotoxicity against human COLO205 cells assessed as growth inhibition
BT-549 = experiment: Cytotoxicity against human BT549 cells assessed as growth inhibition
T47D = experiment: Cytotoxicity against human T47D cells assessed as growth inhibition
SF-539 = experiment: Cytotoxicity against human SF539 cells assessed as growth inhibition
RXF 393 = experiment: Cytotoxicity against human RXF393 cells assessed as growth inhibition
786-0 = experiment: Cytotoxicity against human 786-0 cells assessed as growth inhibition
NCI-H226 = experiment: Cytotoxicity against human NCI-H226 cells assessed as growth inhibition
[1] = Cytotoxicity against human OVCAR3 cells assessed as growth inhibition; details: OVCAR-3
PC-3 = experiment: Cytotoxicity against human PC3 cells assessed as growth inhibition
[2] = Cytotoxicity against human UACC257 cells assessed as growth inhibition; details: UACC-257
[3] = Cytotoxicity against human UO31 cells assessed as growth inhibition; details: UO-31
CAKI-1 = experiment: Cytotoxicity against human CAKI-1 cells assessed as growth inhibition
SNB-19 = experiment: Cytotoxicity against human SNB19 cells assessed as growth inhibition
[4] = Cytotoxicity against human HCT15 cells assessed as growth inhibition; details: HCT-15
TK-10 = experiment: Cytotoxicity against human TK10 cells assessed as growth inhibition
[5] = Cytotoxicity against human UACC62 cells assessed as growth inhibition; details: UACC-62
Malme-3M = experiment: Cytotoxicity against human MALME-3M cells assessed as growth inhibition
NCI-H23 = experiment: Cytotoxicity against human NCI-H23 cells assessed as growth inhibition
MDA-MB-231 = experiment: Cytotoxicity against human MDA-MB-231 cells assessed as growth inhibition
SK-MEL-5 = experiment: Cytotoxicity against human SK-MEL-5 cells assessed as growth inhibition
MDA-MB-435 = experiment: Cytotoxicity against human MDA-MB-435 cells assessed as growth inhibition
HOP-62 = experiment: Cytotoxicity against human HOP62 cells assessed as growth inhibition
SK-MEL-28 = experiment: Cytotoxicity against human SK-MEL-28 cells assessed as growth inhibition
MDA-MB-468 = experiment: Cytotoxicity against human MDA-MB-468 cells assessed as growth inhibition
SR = experiment: Cytotoxicity against human SR cells assessed as growth inhibition
[6] = Cytotoxicity against human OVCAR8 cells assessed as growth inhibition; details: OVCAR-8
LOX IMVI = experiment: Cytotoxicity against human LOXIMVI cells assessed as growth inhibition
M14 = experiment: Cytotoxicity against human M14 cells assessed as growth inhibition
HOP-92 = experiment: Cytotoxicity against human HOP92 cells assessed as growth inhibition
SK-MEL-2 = experiment: Cytotoxicity against human SK-MEL-2 cells assessed as growth inhibition
SNB-75 = experiment: Cytotoxicity against human SNB75 cells assessed as growth inhibition
ACHN = experiment: Cytotoxicity against human ACHN cells assessed as growth inhibition
K562 = experiment: Cytotoxicity against human K562 cells assessed as growth inhibition
CCRF-CEM = experiment: Cytotoxicity against human CCRF-CEM cells assessed as growth inhibition
A498 = experiment: Cytotoxicity against human A498 cells assessed as growth inhibition
SK-OV-3 = experiment: Cytotoxicity against human SKOV3 cells assessed as growth inhibition
U-251 = experiment: Cytotoxicity against human U251 cells assessed as growth inhibition
[7] = Cytotoxicity against human OVCAR4 cells assessed as growth inhibition; details: OVCAR-4
HT-29 = experiment: Cytotoxicity against human HT-29 cells assessed as growth inhibition
[8] = Cytotoxicity against human Hs 578T cells assessed as growth inhibition
SF-268 = experiment: Cytotoxicity against human SF268 cells assessed as growth inhibition
HCC 2998 = experiment: Cytotoxicity against human HCC2998 cells assessed as growth inhibition
[9] = Cytotoxicity against human NCI-ADR-RES cells assessed as growth inhibition
[10] = Cytotoxicity against human OVCAR5 cells assessed as growth inhibition; details: OVCAR-5
[11] = Cytotoxicity against human EKVX cells assessed as growth inhibition
MCF7 = experiment: Cytotoxicity against human MCF7 cells assessed as growth inhibition
IGROV-1 = experiment: Cytotoxicity against human IGROV1 cells assessed as growth inhibition
HL-60(TB) = experiment: Cytotoxicity against human HL-60(TB) cells assessed as growth inhibition

Cc1cc(/C=C2\CCc3c(n(C)c4ccccc34)C2=O)cc(C)c1O
GI50 (MOLT-4): 800 nM | GI50 (NCI-H460): 390 nM | GI50 (NCI-H322M): 2730 nM | GI50 (SW-620): 430 nM | GI50 (NCI-H522): 140 nM | GI50 (DU-145): 1850 nM | GI50 (SF-295): 1480 nM | GI50 (A549): 740 nM | GI50 (HCT-116): 390 nM | GI50 (SN12C): 720 nM | GI50 (RPMI-8226): 760 nM | GI50 (KM12): 450 nM | GI50 (COLO 205): 22900 nM | GI50 (BT-549): 2840 nM | GI50 (T47D): 2060 nM | GI50 (SF-539): 700 nM | GI50 (RXF 393): 1080 nM | GI50 (786-0): 3250 nM | GI50 (NCI-H226): 4380 nM | GI50 [1]: 350 nM | GI50 (PC-3): 2490 nM | GI50 [2]: 5830 nM | GI50 [3]: 730 nM | GI50 (CAKI-1): 840 nM | GI50 (SNB-19): 630 nM | GI50 [4]: 510 nM | GI50 (TK-10): 1080 nM | GI50 [5]: 410 nM | GI50 (Malme-3M): 450 nM | GI50 (NCI-H23): 2530 nM | GI50 (MDA-MB-231): 1060 nM | GI50 (SK-MEL-5): 410 nM | GI50 (MDA-MB-435): 160 nM | GI50 (HOP-62): 720 nM | GI50 (SK-MEL-28): 640 nM | GI50 (MDA-MB-468): 310 nM | GI50 (SR): 340 nM | GI50 [6]: 920 nM | GI50 (LOX IMVI): 700 nM | GI50 (M14): 390 nM | GI50 (HOP-92): 6560 nM | GI50 (SK-MEL-2): 330 nM | GI50 (SNB-75): 410 nM | GI50 (ACHN): 830 nM | GI50 (K562): 330 nM | GI50 (CCRF-CEM): 740 nM | GI50 (A498): 3390 nM | GI50 (SK-OV-3): 1520 nM | GI50 (U-251): 540 nM | GI50 [7]: 3870 nM | GI50 (HT-29): 4180 nM | GI50 [8]: 730 nM | GI50 (SF-268): 720 nM | GI50 (HCC 2998): 3610 nM | GI50 [9]: 340 nM | GI50 [10]: 5100 nM | GI50 [11]: 4840 nM | GI50 (MCF7): 370 nM | GI50 (IGROV-1): 1590 nM | GI50 (HL-60(TB)): 340 nM
